According to US20120190707A1, “SELECTIVE INHIBITORS OF AKT AND METHODS OF USING SAME” (priority 2008, published 2012):
“Also recorded” adds a separate entry of the source.

Experiments:
UACC903 melanoma cells [1] = experiment: Cell death by trypan blue exclusion in UACC903 compared with 29-1 cells; assay type: cell-based, human
Experimental: (§1) (A) 903 and 29-1 cells were exposed to different concentrations of BI-69A11 or UV light as a positive control and the percentage of cell death determined by trypan blue exclusion assay. (B) PARP cleavage was determined in 903 and 29-1 cells after treatment with BI-69A11 at 2, 4 and 6 hours.
(§2) Since AKT activity is important for tumor cell survival, its inhibition is expected to result in cell death. We thus monitored cell death in melanoma cells that were treated with BI-69A11.
For the proliferation assays, cells were treated as described above. However, instead of scraping cells into the serum-free medium, floating cells were collected in a 15 mL centrifuge tube whereas adherent cells trypsinized gently. The total cell population was pooled and counted on a hemocytometer after staining with Trypan Blue. The percentage of dead cells was determined by calculating the number of dead cells/total cells X 100. This experiment was performed two times each in triplicate.

PARP = PARP cleavage in 903 and 29-1 cells; assay type: cell-based, human; conditions: 2, 4 and 6 hours; listed as BI-69A11
Experimental: as §1, §2
For western blotting techniques, cells were lysed in RIPA buffer containing 50 mM TrisHCl pH7.4, 150 mM NaCl, 2 mM EDTA, 1% NP-40, 0.1% SDS. The protein concentration was estimated using the Coomassie Protein assay kit (Thermo Scientific, Rockford, Ill., USA). Equal concentrations of cell lysate (30-50 ug) were resolved on a 10% polyacrylamide gel and transferred onto Nitrocellulose membrane (GE Amersham). Membranes were blocked for 1-2 hours in either 3% BSA or 5% nonfat dried milk in Tris-buffered saline containing 0.05% Tween 20. Primary antibody incubations were performed overnight at 4° C. with shaking. The blots were washed followed by incubation with a secondary antibody incubation for 1 hour at room temperature. After washing, the blots were scanned on the Odyssey Licor scanner at the appropriate wavelength and the image was captured using the Odyssey software.

AKT transcripts = experiment: QPCR analysis of AKT transcripts in melanoma cells; assay type: cell-based; conditions: data not shown
Excerpt: Given the effect of BI-69A11 on the level of AKT protein, we assessed the possible mechanisms underlying such an effect. First, we assessed whether BI-69A11 affects the level of AKT transcripts. RNA prepared from the melanoma cells, with and without treatment with BI-69A11, was subjected to QPCR analysis.

PI3K = experiment: Activity of other protein kinases: PI3K; assay type: biochemical; conditions: 100 micro.M
Excerpt: (§3) We recently reported on the direct evaluation of a number of in silico approaches to identify AKT inhibitors (Forino et al., 2005) We achieved experimental validation of selected compounds using both a fluorescence-based enzymatic assay and a substrate phosphorylation assay involving the protein GSK-3 (Forino et al., 2005). Briefly, the virtual docking approach consists of selecting the top 4,000 out of 50,000 docked compounds, using a variety of computational docking approaches, including a consensus score among two different scoring functions (Forino et al., 2005). Of those, 100 compounds were selected based on ranking and favorable docking geometry.

PC3 prostate tumor cells = experiment: Cell death by trypan blue staining, PC3; assay type: cell-based; conditions: PC3, 5 micro.M, within 4 hours
Experimental: (A) MeWo melanoma cells growing in 60 mm plates were treated with the indicated concentration of the inhibitor for 4 h before proteins were prepared for western blot analysis using the indicated antibodies. Level of beta.actin was monitored as a control for protein loading. (B) Experiment was performed as indicated in panel A, except that cells were harvested after 24 h for analysis of cell death using trypan blue staining. (C) Melanoma (MeWo), prostate cancer (PC3) and breast cancer (MCF7) cells were treated with BI-69A11 at the indicated concentrations; levels of AKT phosphorylation or expression were assessed 4 h later. The level of beta.actin used as a control for protein loading. (D) Experiment was performed as indicated in panel C, except that cells were harvested after 4 h for analysis of cell death using trypan blue staining.
For the proliferation assays, cells were treated as described above. However, instead of scraping cells into the serum-free medium, floating cells were collected in a 15 mL centrifuge tube whereas adherent cells trypsinized gently. The total cell population was pooled and counted on a hemocytometer after staining with Trypan Blue.

p38.alpha = p38.alpha (Homo sapiens, UniProt Q16539); experiment: Activity of other protein kinases: p38.alpha; assay type: biochemical; conditions: 100 micro.M
UACC903 melanoma cells [2] = experiment: CellTiter Blue Cell Viability Assay in UACC903 cells; assay type: cell-based, human; conditions: 24 h post-treatment
Experimental: UACC903 melanoma cells were treated with vehicle (0 μM) or the indicated concentrations of BI-69A11, BI-83G10, or BI-98C11. 24 h post-treatment, cell viability was determined using the CellTiter Blue Cell Viability Assay (Promega, Madison Wis.) following the manufacturer's directions.

Abl1 = Abl1 (Homo sapiens, UniProt P00519); experiment: Non related protein kinase Abl1 inhibition; assay type: biochemical; conditions: concentrations up to 100 μM
Excerpt: In addition, we tested our compounds against a non related protein kinase, Abl1 (22), which is a tyrosine kinase under investigation in our laboratory.
as §3

CHK2 = CHK2 (Homo sapiens, UniProt O96017); experiment: Invitrogen SelectScreen Kinase Profiling Service; assay type: biochemical
Experimental: In addition to its inhibition of AKT, BI-69A11 was tested for inhibition of additional protein kinases using the Invitrogen SelectScreen Kinase Profiling Service. The Ser/Thr protein kinase, Checkpoint Kinase 2 (CHK2), is an important component in the cellular response to DNA damage. In response to genotoxic stresses such as g-irradiation, which causes double stranded DNA breaks, the Ataxia Telangiectasia Mutated (ATM) protein kinase is activated, which in turn phosphorylates a number of downstream effectors, such as CHK2. Activation of the ATM-CHK2 axis enforces the DNA damage checkpoint response, halting the cell cycle in order to initiate DNA repair.
To accomplish this, we g-irradiated vehicle- or BI69A11-treated cells and examined ATM and CHK2 phosphorylation, a well-characterized surrogate of activation (FIG. 13). In vehicle-treated cells, g-irradiation led to the robust phosphorylation of ATM and CHK2.

Chain of Abl1 (P00519 whole entry, species assumed): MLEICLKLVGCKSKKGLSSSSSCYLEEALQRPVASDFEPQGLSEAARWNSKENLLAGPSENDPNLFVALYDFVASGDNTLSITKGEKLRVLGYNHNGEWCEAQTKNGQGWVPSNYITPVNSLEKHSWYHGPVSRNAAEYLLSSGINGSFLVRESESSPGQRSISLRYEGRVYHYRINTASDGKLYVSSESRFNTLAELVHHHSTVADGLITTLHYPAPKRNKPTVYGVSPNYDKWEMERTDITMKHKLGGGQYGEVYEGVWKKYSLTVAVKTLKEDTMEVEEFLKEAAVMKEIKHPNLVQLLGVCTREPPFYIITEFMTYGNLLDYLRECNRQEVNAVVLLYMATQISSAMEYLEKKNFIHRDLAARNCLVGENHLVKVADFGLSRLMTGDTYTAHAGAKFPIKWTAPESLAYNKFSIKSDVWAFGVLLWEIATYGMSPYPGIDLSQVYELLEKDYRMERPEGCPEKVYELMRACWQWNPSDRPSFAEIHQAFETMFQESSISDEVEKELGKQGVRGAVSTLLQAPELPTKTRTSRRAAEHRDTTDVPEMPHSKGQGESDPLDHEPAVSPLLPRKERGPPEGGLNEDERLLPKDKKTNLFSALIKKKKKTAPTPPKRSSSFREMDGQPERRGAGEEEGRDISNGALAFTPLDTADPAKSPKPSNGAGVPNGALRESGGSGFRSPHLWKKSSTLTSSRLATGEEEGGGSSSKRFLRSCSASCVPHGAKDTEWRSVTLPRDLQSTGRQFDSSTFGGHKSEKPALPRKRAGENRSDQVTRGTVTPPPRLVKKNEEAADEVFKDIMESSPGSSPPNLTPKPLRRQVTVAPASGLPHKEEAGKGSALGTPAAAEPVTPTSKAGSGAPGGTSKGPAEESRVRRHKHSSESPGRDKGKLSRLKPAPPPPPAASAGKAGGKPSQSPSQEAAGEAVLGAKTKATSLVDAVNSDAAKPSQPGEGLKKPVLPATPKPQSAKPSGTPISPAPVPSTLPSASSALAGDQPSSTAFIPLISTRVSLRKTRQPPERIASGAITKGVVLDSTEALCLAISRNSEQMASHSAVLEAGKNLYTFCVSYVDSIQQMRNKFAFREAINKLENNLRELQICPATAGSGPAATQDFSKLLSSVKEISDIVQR
Chain of CHK2 (O96017 whole entry): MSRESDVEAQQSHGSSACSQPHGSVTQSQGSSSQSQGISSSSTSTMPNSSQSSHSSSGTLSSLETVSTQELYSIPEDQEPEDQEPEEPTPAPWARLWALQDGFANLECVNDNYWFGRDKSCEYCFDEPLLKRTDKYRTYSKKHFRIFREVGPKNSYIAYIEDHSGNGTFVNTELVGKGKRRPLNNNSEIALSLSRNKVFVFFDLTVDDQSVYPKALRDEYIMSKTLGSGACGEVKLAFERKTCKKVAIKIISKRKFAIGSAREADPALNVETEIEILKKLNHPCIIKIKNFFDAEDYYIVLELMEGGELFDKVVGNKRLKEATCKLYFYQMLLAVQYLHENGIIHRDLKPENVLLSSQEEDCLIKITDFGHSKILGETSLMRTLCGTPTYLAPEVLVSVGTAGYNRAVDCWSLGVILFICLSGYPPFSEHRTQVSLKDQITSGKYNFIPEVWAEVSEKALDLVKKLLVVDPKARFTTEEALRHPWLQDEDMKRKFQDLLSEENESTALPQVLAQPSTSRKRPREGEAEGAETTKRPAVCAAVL
Chain of p38.alpha (Q16539 whole entry): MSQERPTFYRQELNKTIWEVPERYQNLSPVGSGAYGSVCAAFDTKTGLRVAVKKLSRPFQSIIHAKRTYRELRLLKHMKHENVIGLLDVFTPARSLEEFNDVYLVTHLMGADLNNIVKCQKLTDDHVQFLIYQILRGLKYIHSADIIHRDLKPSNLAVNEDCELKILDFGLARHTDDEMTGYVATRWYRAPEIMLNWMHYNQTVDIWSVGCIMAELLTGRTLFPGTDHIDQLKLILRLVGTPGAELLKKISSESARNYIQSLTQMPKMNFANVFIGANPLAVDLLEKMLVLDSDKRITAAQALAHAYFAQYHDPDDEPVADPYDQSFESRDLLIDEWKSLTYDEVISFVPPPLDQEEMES

## O=C(/C=C/c1nc2ccccc2[nH]1)c1c(O)nc2ccc(Cl)cc2c1-c1ccccc1 [Compound 2, (E)-3-(3-(1H-benzo[d]imidazol-2-yl)acryloyl)-6-chloro-4-phenylquinolin-2(1H)-one]
UACC903 melanoma cells [1]; FIG. 7A
  cell death, PTEN mutant melanoma cells compared with 29-1 cells: more pronounced on PTEN mutant melanoma cells
UACC903 melanoma cells [1]; concentrations as low as 1 micro.M, within 24 hours
  cell death of melanoma cells: effective cell death
PARP
  PARP cleavage, 903 cells compared with 29-1: more pronounced in the UAC903 cells; also recorded: Increased PARP cleavage
AKT transcripts
  level of AKT transcripts: did not identify differences
PI3K
  effect on PI3K activity: did not affect
PC3 prostate tumor cells
  cell death: about 25%
p38.alpha
  effect on p38.alpha activity: did not affect
UACC903 melanoma cells [2]
  viability of UACC903 cells: decreased the viability
Abl1
  inhibition of Abl1: did not affect
CHK2
  kinase profiling result for CHK2: possible target
